Test results as given in patent publication US20100129515A1, “FLAVOUR MODULATING SUBSTANCES” (QUEST INTERNATIONAL SERVICES B.V., priority 2005, published 2010).

What was measured:
[1] = Taste of solutions in water (Example 7); assay type: in vivo
[2] = cited from earlier work; for taste: as a dry powder and as an alcoholic or aqueous solution; for pungency: compared with capsaicin
[3] = Tasting of 5% (w/w) ethanol solutions by trained flavourist panel (Example 2); assay type: in vivo; details: reference 5% (w/w) alcoholic solution
Procedure: The solid product obtained in example 1 was dissolved in ethanol/water (1:1, w/w) to prepare a 1000 ppm stock solution.
The following 3 alcoholic solutions are prepared: A: 1 ppm N-vanillyl urea as obtained in example 1
B: 10 ppm N-vanillyl urea as obtained in example 1
C: 100 ppm N-vanillyl urea as obtained in example 1
All solutions were tasted by a trained flavourist panel and compared to a 5% (w/w) alcoholic solution (the reference).

[4] = Tasting of 0.6% sodium chloride / 0.03% mono sodium glutamate solution by trained flavourist panel (Example 3); assay type: in vivo; details: 10 ppm in 0.6% sodium chloride, compared with solution A without substance
Procedure: 2 solutions were prepared containing respectively:
0.03% mono sodium glutamate
10 ppm N-vanillyl urea as described in example 1
Both solutions were tasted by a trained flavourist panel, which described the solutions as follows: […]

[5] = Tasting of 10 ppm menthol solution by trained flavourist panel (Example 4); assay type: in vivo; details: 1 ppm added to 10 ppm menthol solution; compared to the base
Procedure: 1 ppm N-vanillyl urea as described in example 1 was added to a 10 ppm menthol solution and compared to the base. Both solutions were tasted by a trained flavourist panel, which described the solutions as follows: […]

[6] = Tasting of 0.6% NaCl / 0.03% MSG / 4 ppm pepper oleoresin solutions by professional panel (Example 11); assay type: in vivo
Procedure: Three solutions of 0.6% NaCl and 0.03% MSG and 4 ppm pepper oleoresin (ex Warner Jenkinson, St Louis, USA) were prepared.
To a first solution (sample A), 1 ppm N-vanillyl-N′-octyl urea was added To a second solution (sample B), 2 ppm N-vanillyl-N′-octyl thiourea was added.
(§1) Samples A and B and the reference sample were tasted by a professional panel.

[7] = Tasting of 0.6% NaCl / 0.03% MSG solutions by professional panel (Examples 9 and 10); assay type: in vivo
Procedure: Three solutions of 0.6% NaCl and 0.03% MSG were prepared.
To a first solution (sample A), 0.1 ppm N-vanillyl-N′-octyl urea was added To a second solution (sample B) 0.2 ppm N-vanillyl-N′-octyl thiourea was added.
as §1
To a first solution (sample A), 5 ppm N-vanillyl-N′-octyl urea was added To a second solution (sample B), 10 ppm N-vanillyl-N′-octyl thiourea was added.

[8] = Tasting of fondant with 2500 ppm menthol by professional panel (Example 8); assay type: in vivo
Procedure: Three samples of fondant were prepared by mixing 65% Fondacreme (ex Belgosuc NV Belgium) with 35% sugar syrup (67° Brix). 2500 Ppm menthol was added as a 50% solution in propylene glycol.
To a first sample (sample A), 0.1 ppm N-vanillyl-N′-octyl urea was added To a second sample (sample B), 0.2 ppm N-vanillyl-N′-octyl thiourea was added. Samples A, B and the reference sample were tasted by a professional panel. […] The cooling was perceived more through the whole oral cavity.

[9] = Tasting of toothpaste by professional panel (Example 13); assay type: in vivo
Procedure: 97 g of a toothpaste base was prepared as follows: 13.8 ml demineralised water, 0.1 g trisodium phosphate (12H2O) and 0.8 g sodium monofluorophosphate were weighed and mixed until clear. 50.0 g of sorbitol was added and the blend was mixed again. The obtained mixture was placed in a Fryma pot. A poly bag was placed in a suitable container and 8.0 g of precipitated silica AC30, 9.0 g of precipitated silica TC15, 0.8 g of sodium carboxymethylcellulose (SCMC 9M31XF) and 1.0 g of a colorant (Tiona (1700)) were weighed and placed in the bag in the order listed. The top of the bag was secured with a tag and the contents were thoroughly mixed to distribute the gum throughout the mixture.
This mixture was added to the Fryma pot. Then 7.0 ml of demineralised water, 1.5 g of sodium lauryl sulphate (Empicol LXV100C) and 5.0 g of PEG 1500 were placed in a beaker and heated to 45° C. and mixed with a Turrax to disperse the ingredients. The dispersion was placed on a magnetic stirrer until clear (while covered with cling film) and was subsequently added to the Fryma pot.
To this base toothpaste 0.8 g of a 25% saccharin soln was added. Part of the base toothpaste was then intensively mixed with N-vanillyl-N′-octyl urea (as obtained in Example 4) to obtain a 0.1 ppm concentration of N-vanillyl-N′-octyl urea (sample A). […]

COc1cc(CNC(N)=S)ccc1O [N-vanillyl thiourea]
taste of solution in water ([1]; 25 ppm in water): tingling, burning and slightly bitter taste and a weak vanillin-like flavour sensation | taste [2]: tasteless

COc1cc(CNC(N)=O)ccc1O [N-vanillyl urea]
taste compared to the reference ([3]; 1 ppm in 5% (w/w) ethanol): more alcohol-like bite than the reference | taste compared to the reference ([3]; 10 ppm in 5% (w/w) ethanol): stronger hot, sharp and pungent, ethanol-like taste compared to the reference solution | taste compared to the reference ([3]; 100 ppm in 5% (w/w) ethanol): stronger hot, sharp and pungent, ethanol-like taste compared to the reference solution | taste of solution in water ([1]; 50 ppm in water): slightly tingling taste and a weak vanillin-like flavour sensation | taste description [4]: more salty, umami, warm, bite, preferred to A | taste [2]: tasteless | taste description [5]: powerful and full cooling sensation, preferred to the base

CCCCCCCCNC(=S)NCc1ccc(O)c(OC)c1 [N-vanillyl-N′-octyl thiourea]
hotness and overall impression compared to the reference sample ([6]; 2 ppm in 0.6% NaCl, relative to sample A): the same effects but slightly weaker | salt effects compared to the reference sample ([7]; 0.2 ppm in 0.6% NaCl, relative to sample A): the same effects but slightly weaker | salt and hotness effects compared to the reference sample ([7]; 10 ppm in 0.6% NaCl, relative to sample A): the same effects but slightly weaker | cooling effect compared to the reference sample ([8]; 0.2 ppm in fondant with 2500 ppm menthol, relative to sample A): the same effects but slightly weaker

CCCCCCCCNC(=O)NCc1ccc(O)c(OC)c1 [N-vanillyl-N′-octyl urea, N-octyl-N′-vanillyl urea]
hotness and overall impression compared to the reference sample ([6]; 1 ppm in 0.6% NaCl): clearly more hot than the reference sample and the overall impression is much stronger | onset of salt impression compared to the reference ([7]; 0.1 ppm in 0.6% NaCl): came faster than in the reference | saltiness compared to the reference sample ([7]; 0.1 ppm in 0.6% NaCl): more salty compared to the reference sample | duration of hotness ([7]; 5 ppm in 0.6% NaCl): up to 10 minutes | onset of salt impression compared to the reference sample ([7]; 5 ppm in 0.6% NaCl): came faster than in the reference sample | saltiness and hotness compared to the reference sample ([7]; 5 ppm in 0.6% NaCl): more salty and had a ‘clean’ and long lasting (up to 10 minutes) hotness compared to the reference sample | taste of solution in water ([1]; 1 ppm in water): strong tingling and burning taste | cooling effect compared to the reference sample ([8]; 0.1 ppm in fondant with 2500 ppm menthol): more intense and long-lasting cooling effect compared to the reference sample | cooling effect compared with the base toothpaste ([9]; 0.1 ppm in toothpaste): more aggressive cooling and more cooling volume in the oral cavity than the base

CCNC(=O)C1CC(C)CCC1C(C)C (stereo not drawn) [WS-3, reference compound]
cooling effect compared with the base toothpaste ([9]; 10 ppm in toothpaste): in between sample A and the base in cooling strength

COc1cc(CNC(=S)Nc2ccc(C)cc2)ccc1O [p-tolylvanillyithiourea]
pungency [2]: property of pungency but to a lesser degree than capsaicin

o-tolylvanillylthiourea
pungency [2]: property of pungency but to a lesser degree than capsaicin

phenylvanillylthiourea
taste [2]: tasteless | pungency [2]: property of pungency but to a lesser degree than capsaicin
